Measurements: PubChem BioAssay (NCI)
Several values for one entry are separate records, joined by “and”; a condition that tells them apart may be missing. Equal entries are not always repeated.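 Step 1: Grow cells in 96-well plates. Step 2: Expose to compound for 48 hours at 5 concentrations. Step 3: Interpolate endpoints linearly; if unreached, use highest concentration. GI50 marks 50% less growth. Definition used: TGI = concentration required for complete inhibition of growth.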

Key:
Test in all cases: NCI tumour cell line growth inhibition, 48 h
XF 498 CNS = system: XF 498 CNS
M19-MEL melanoma = system: M19-MEL melanoma
SNB-78 CNS = system: SNB-78 CNS
LXFL 529 NSCLC = system: LXFL 529 NSCLC
DMS 114 small cell lung = system: DMS 114 small cell lung
HOP-18 NSCLC = system: HOP-18 NSCLC
DLD-1 colon = system: DLD-1 colon
RXF-631 renal = system: RXF-631 renal
MDA-N = system: MDA-N
P388 leukemia = system: P388 leukemia
P388/ADR leukemia = system: P388/ADR leukemia
SN12K1 renal = system: SN12K1 renal

SMILES | TGI (XF 498 CNS) [µM] | TGI (M19-MEL melanoma) | TGI (SNB-78 CNS) [µM] | TGI (LXFL 529 NSCLC) | TGI (DMS 114 small cell lung) [µM] | TGI (HOP-18 NSCLC) [µM] | TGI (DLD-1 colon) | TGI (RXF-631 renal) | TGI (MDA-N) [µM] | further results
O=C1C2c3[nH]c4ccccc4c3C3CCCCCC3C2C(=O)N1c1ccccc1 (stereo not given) | 47.4 | > 100 µM | 70.7 | > 100 µM | > 100 | > 60.4 | > 100 µM | – | – | –
COc1cc(C2C(C(=O)Nc3ccc([N+](=O)[O-])cc3)=C(C)NC(C)=C2C(=O)Nc2ccc([N+](=O)[O-])cc2)ccc1O | 69.1 | 43.3 µM | > 100 | 64 µM | > 74.5 | > 74.2 | > 68.6 µM | > 100 µM | – | –
CC(=O)[CH-]C(=O)c1ccccc1.CC(=O)[CH-]C(=O)c1ccccc1.CC(C)CCC[C@H](C)C1CCC2[C@@H]3CC=C4C[C@@H]([O-])CC[C@]4(C)C3CC[C@@]21C.CC(C)CCC[C@H](C)C1CCC2[C@@H]3CC=C4C[C@@H]([O-])CC[C@]4(C)C3CC[C@@]21C.Cl.[Ti+4] (stereo not given in full) | – | – | – | > 25 µM | – | > 25 | > 25 µM | – | – | GI50 (LXFL 529 NSCLC): > 25 µM; GI50 (HOP-18 NSCLC): > 25 µM; GI50 (DLD-1 colon): > 25 µM
COc1cc(-c2ccc(NC(=O)SCCC(=O)O)cc2OC)ccc1NC(=O)SCCC(=O)O | > 100 | > 100 µM | > 100 | > 100 µM | > 100 | – | – | – | – | –
O=C(COc1ccc(OCC(=O)N2C(=O)CN(c3ccccc3)C2=S)cc1)N1C(=O)CN(c2ccccc2)C1=S | – | – | – | – | – | – | – | – | > 100 | GI50 (MDA-N): > 25 µM
COc1cc(/C=C/c2ccc(Br)cc2)cc(OC)c1OC | 65.9 | > 71.5 µM | – | > 100 µM | 52.8 | > 74.6 | > 100 µM | > 75.4 µM | – | –
O=C(CCl)Nc1cc(Cl)c(Cl)cc1Cl | – | – | – | – | – | – | – | – | 3.19 | –
COC1[C@H](NC(=O)OC(C)(C)C)C(=O)N1Cc1ccccc1 (stereo not given in full) | > 100 | > 100 µM | > 100 | > 100 µM | > 100 | – | > 100 µM | – | – | –
COc1ccc(S(=O)(=O)N[C@H](C(=O)O)c2ccccc2)cc1 | > 100 | > 100 µM | > 100 | > 100 µM | > 100 | > 100 | > 100 µM | – | – | –
CCCCCCCCCCCCCCCCc1c(C(=O)OC)nc(NN)[nH]c1=O | > 50 | > 50 µM | > 50 | > 50 µM | > 50 | > 50 | > 50 µM | > 50 µM | – | –
Cc1nc(N)c(-c2ccccc2)s1 | > 100 | > 100 µM | > 100 | > 100 µM | > 100 | > 100 | > 100 µM | > 100 µM | – | –
COc1cccc2nc3ccccc3nc12 | – | – | – | – | – | – | – | – | > 100 | –
CCN(CC)CC(=O)NC1c2ccccc2Oc2c(C)cccc21 (stereo not given) | > 100 | > 100 µM | > 100 | > 100 µM | > 100 | – | > 100 µM | – | – | –
COc1ccc(-c2ccccc2)c2[nH]c3c(c12)CCNC3=O | – | > 100 µM | > 100 | > 100 µM | – | – | > 100 µM | – | – | –
O=C(N/C(=C\c1ccccc1Cl)c1nc2ccccc2[nH]1)c1ccccc1 | 57.5 | > 100 µM | > 100 | > 100 µM | > 100 | – | > 100 µM | > 100 µM | – | –
O=C1C=CC(=Nc2cccc3c(N=C4C=CC(=O)O4)cccc23)O1 | – | – | – | – | – | – | – | – | 69.1 | –
COC(=O)C1C(=O)O[C@@H](c2ccc(OC)c(OC)c2OC)C1C(=O)OC (mixture of isomers) | > 100 | > 100 µM | > 100 | > 100 µM | > 100 | – | > 100 µM | > 100 µM | – | –
COc1ccc2c(c1)[n+](=O)c(C(=O)C/C(=N/NC(=O)C[N+](C)(C)C)C(=O)Nc1cccc(C)c1C)c(C)n2O | – | > 100 µM | > 100 | > 100 µM | > 100 | > 100 | > 100 µM | > 100 µM | – | –

SMILES | TGI (XF 498 CNS) [µM] | TGI (M19-MEL melanoma) | TGI (SNB-78 CNS) [µM] | TGI (LXFL 529 NSCLC) | TGI (DMS 114 small cell lung) [µM] | TGI (HOP-18 NSCLC) [µM] | TGI (DLD-1 colon) | TGI (RXF-631 renal) | TGI (MDA-N) [µM] | further results
N#C/C(=C\c1cc(O)ccc1O)C(N)=O | > 100 | > 100 µM | > 100 | > 100 µM | 70.9 | – | > 100 µM | > 100 µM | – | –
O=Cc1c(-c2ccccc2)[nH]c2ccccc2c1=O | – | – | – | – | – | – | – | – | 34.2 | –
Cc1cc(=O)n(-c2c(C)cccc2Cl)c(/C=C(\O)c2ccncc2)n1 | – | – | > 100 | > 100 µM | > 100 | > 100 | > 100 µM | > 100 µM | – | –
CC(=O)OC(C)(C)/C=C/C(=O)[C@](C)(O)[C@H]1[C@H](O)C[C@@]2(C)[C@@H]3CC=C4[C@@H](C=C(O)C(=O)C4(C)C)[C@]3(C)C(=O)C[C@]12C | – | 4.2 µM and 3.01 µM and 3.43 µM | – | 0.305 µM and 0.385 µM | – | – | 4.25 µM and 4.43 µM and 2.19 µM | 0.434 µM and 0.152 µM | 1.57 | GI50 (RXF-631 renal): 0.018 µM; GI50 (P388 leukemia): 0.0895 µM; TGI (P388 leukemia): 2.32 µM and 14.3 µM; GI50 (LXFL 529 NSCLC): 0.018 µM; GI50 (P388/ADR leukemia): 0.175 µM; TGI (P388/ADR leukemia): 3.04 µM and 2 µM; GI50 (SN12K1 renal): 0.0155 µM; TGI (SN12K1 renal): 0.287 µM and 0.0604 µM
O=C(CO[N+](=O)[O-])OC/C=C/c1ccccc1 | – | > 100 µM | – | > 100 µM | > 100 | – | > 100 µM | – | – | –
CC1CCC(=O)C(C(O)CC2CC(=O)N(c3ccccc3)C(=O)C2)C1 (stereo not given) | – | > 100 µM | > 100 | > 100 µM | > 100 | > 100 | > 100 µM | – | – | –
CC(=O)OCC1OC(OCc2ccccc2)C(Br)C(OC(C)=O)C1OC(C)=O (stereo not given) | > 100 | > 100 µM | > 100 | > 100 µM | – | > 100 | > 100 µM | > 100 µM | – | –
COc1cc2c(cc1O)CN1CCC23C=C[C@@H](O)CC13 (stereo not given in full) | – | > 100 µM | > 100 | > 100 µM | > 100 | > 100 | > 100 µM | – | – | –
COc1cccc(/C=C/c2ccnc3ccccc23)c1OC | – | – | – | – | – | – | – | – | > 10 | –
CCOc1ccc(OCC)c([P+](c2ccccc2)(c2ccccc2)c2ccccc2)c1 | 0.542 | 16.3 µM | > 100 | 10.4 µM | 3.18 | 6.22 | 16 µM | 51.4 µM | – | –
CN(C)Cc1ccc(C(C)(C)C)cc1-c1cc(C(C)(C)C)ccc1CN(C)C | – | – | – | – | – | – | – | – | > 100 | –
CN(NC1OC(CO)C(O)C(O)C1O)c1ccccc1 (stereo not given) | 30.6 | > 100 µM | > 100 | > 100 µM | – | > 100 | > 100 µM | – | – | –
CCN(CC)c1ccc(C2NC(=O)c3ccccc3N2)cc1 (stereo not given) | – | – | – | – | – | – | – | – | 2.55 | –
O=C(/C=C/C(Cl)(Cl)Cl)Nc1ccc(Cl)cc1 | – | – | – | – | – | – | – | – | 13.8 | –
COc1ccc2nc3cc([N+](=O)[O-])ccc3c(NNc3ccccc3)c2c1 | – | – | – | – | – | – | – | – | > 100 | –
CC(=O)Nc1ccc(/C=C2\N=C(c3ccccc3)OC2=O)cc1 | – | – | – | > 100 µM | > 100 | > 100 | > 100 µM | – | – | –
O=CNc1ccc(S(=O)(=O)c2ccc(NC=O)cc2)cc1 | – | – | – | – | – | – | – | – | > 100 | –
COC1OC(CBr)C(OC(=O)c2ccccc2)C(OS(=O)(=O)c2ccc(C)cc2)C1Br (stereo not given) | – | > 100 µM | > 100 | > 100 µM | – | – | – | – | – | –
